The source of these data is US8598158B2, “Fused tricyclic compounds for the treatment of inflammatory disorders” (Merck Sharp & Dohme Corp., priority 2009, dated 2013).

Structures are written as SMILES.

For one test, the target named is MK2 kinase (Homo sapiens, UniProt P49137). Description: bMK2 IMAP assay.
MK2 kinase, sequence (P49137 whole entry): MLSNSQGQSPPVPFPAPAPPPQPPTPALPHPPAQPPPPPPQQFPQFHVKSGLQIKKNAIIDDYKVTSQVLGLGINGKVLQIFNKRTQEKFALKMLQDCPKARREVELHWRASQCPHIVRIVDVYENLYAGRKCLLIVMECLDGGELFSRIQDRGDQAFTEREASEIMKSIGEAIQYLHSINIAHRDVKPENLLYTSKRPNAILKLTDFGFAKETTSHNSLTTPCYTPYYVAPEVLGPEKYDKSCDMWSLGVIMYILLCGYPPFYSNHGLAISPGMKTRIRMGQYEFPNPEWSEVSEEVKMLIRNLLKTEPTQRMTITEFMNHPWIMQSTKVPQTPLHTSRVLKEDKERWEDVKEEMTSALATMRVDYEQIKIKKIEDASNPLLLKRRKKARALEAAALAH
Conditions: not given
Usually IC50 stands for the point on the concentration scale where inhibition reaches its midpoint. Higher therefore signals a need for much substance. Compound `CN1CCN(c2ccc3c(c2)Cc2cc(-c4ccc(Cl)cc4)oc2C(=O)N3Cc2ccccc2-c2cccnc2)CC1` [Compound 6] came in with an IC50 of 10 to 100 nM.

Regarding `Nc1ccc(-c2ccccc2CN2C(=O)c3oc(-c4ccc(Cl)cc4)cc3Cc3cc(N4CCNCC4)ccc32)cn1` [Compound 11], the IC50 lay within 10 to 100 nM.

As to `COCN1C(=O)c2oc(-c3ccc(C#N)cc3)cc2Cc2cc(N3CCNCC3)ccc21` [Compound 13], the IC50 lay in the range of 1 to 10 nM.

As for `O=C1c2oc(-c3ccc(Cl)cc3)cc2Cc2cc(C3CCNCC3)ccc2N1Cc1ccccc1-c1ccccc1` [Compound 16], the IC50 was in the range of 100 to 1000 nM.

Regarding `COc1ccc(-c2ccccc2CN2C(=O)c3oc(-c4ccc(Cl)cc4)cc3Cc3cc(N4CCNCC4)ccc32)cn1` [Compound 17], the IC50 fell in the range of 10 to 100 nM.

`O=C1Nc2ccc(C3CCNCC3)cc2Cc2cc(-c3ccccc3)oc21` [Compound 18]: the IC50 lay in the range of 100 to 1000 nM.

Regarding `O=C1c2oc(-c3ccccc3)cc2Cc2cc(C3CCNCC3)ccc2N1Cc1ccccc1-c1ccccc1` [Compound 20], the IC50 was 1000 to 10000 nM.

Consider `COc1ccncc1-c1ccccc1CN1C(=O)c2oc(-c3ccc(Cl)cc3)cc2Cc2cc(N3CCNCC3)ccc21` [Compound 21], for which the IC50 was in the range of 10 to 100 nM.

`COc1ncc(-c2ccccc2CN2C(=O)c3oc(-c4ccc(Cl)cc4)cc3Cc3cc(N4CCNCC4)ccc32)cn1` [Compound 22] had an IC50 of 10 to 100 nM.

`O=C1Nc2ccc(N3CCNCC3)cc2Cc2cc(-c3ccc(Cl)cc3)sc21` [Compound 23] displayed an IC50 of 1000 to 10000 nM.

Compound `O=C1c2sc(-c3ccc(Cl)cc3)cc2Cc2cc(N3CCNCC3)ccc2N1Cc1ccccn1` [Compound 24] returned an IC50 of 1000 to 10000 nM.

In turn, `N#Cc1ccc(-c2cc3c(s2)C(=O)Nc2ccc(N4CCNCC4)cc2C3)cc1` [Compound 25] displayed a 50% inhibitory concentration (IC50) of 1000 to 10000 nM.

`N#Cc1ccc(-c2cc3c(s2)C(=O)N(Cc2ccccn2)c2ccc(N4CCNCC4)cc2C3)cc1` [Compound 26] had an IC50 of 1000 to 10000 nM.

On to `N#Cc1ccc(-c2cc3c(s2)C(=O)N(Cc2ccccc2-c2cncnc2)c2ccc(N4CCNCC4)cc2C3)cc1` [Compound 27], for which the IC50 lay in the range of 100 to 1000 nM.

The test is the same for the next values; noted with them: IC50 Value, IMAP fluorescence polarization; 100 μM ATP, 50 pM MK2, 100 nM TAMRA peptide substrate.
Compound `O=C1c2oc(-c3ccc(Cl)cc3)cc2Cc2cc(N3CCNCC3)ccc2N1Cc1ccccc1-c1cccnc1` [Compound 5] registered an IC50 of 10 to 100 nM.

Still in this test, the particulars now being: IC50 values, IMAP fluorescence polarization; 100 μM ATP, 50 pM MK2, 100 nM TAMRA peptide substrate.
As to `O=C1c2oc(-c3ccc(Cl)cc3)cc2Cc2cc(N3CCNCC3)ccc2N1Cc1ccccc1-c1cccnc1` [Compound 5], the IC50 worked out at 38.3 nM.
